Experimental data: patent publication US12054509B2, “Antimicrobial compounds, compositions, and uses thereof” (Lakewood Amedex, Inc., priority 2017, dated 2024)
In brackets after ≈: the same amount, converted by molar mass. Read-outs that look alike come from different tables or passages of the source.

Assays:
Assay type in all cases: cell-based
[1] = tested on: Pseudomonas aeruginosa; test: MIC against a single isolate (Example 26); conditions: read-out: P. aeruginosa MIC
Procedure: (§1) Bacterial strains evaluated in this study include Escherichia coli, Klebsiella spp, Serratia marcescens, Proteus mirabilis/vulgaris, Citrobacter spp, Providencia spp, Morganella morganii, Pseudomonas aeruginosa, Staphylococcus aureus (MRSA only), and Enterococcus faecalis. Nu-8 test solutions are adjusted to pH 3.5 with citric acid, and MIC is evaluated per the CLSI methods in Mueller-Hinton broth supplemented accordingly to facilitate growth of specific strains.
(§2) MIC was determined as per Example 9 using LAI-101, LAI-102, Nu-10, LAI-105, LAI-106, Nu-3, and Nu-8 against a single isolate of Escherichia coli. Pseudomonas aeruginosa, Staphylococcus aureus (MRSA only), and Candida Albicans. For all microbe species, the LAI-101, LAI-102, Nu-10, LAI-105, and LAI-106 all perform at least as well as, and in many experiments better than, Nu-8 and Nu-3, which are both already quite active compounds.

[2] = tested on: Candida Albicans; test: MIC against a single isolate (Example 26); conditions: read-out: C. albicans MIC
Procedure: as §1, §2

[3] = tested on: Staphylococcus aureus (MRSA only); test: MIC against a single isolate (Example 26); conditions: read-out: S. aureus MIC
Procedure: as §1, §2

[4] = tested on: Escherichia coli; test: MIC against a single isolate (Example 26); conditions: read-out: E. coli MIC
Procedure: as §1, §2

[5] = tested on: E. coli ATCC 25922; test: Bacterial cytological profiling (Example 6), E. coli;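 as to cell wall deformations: tested at 1 0.5 and 0.25 times MIC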;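 as to effect on cell envelope: tested at 1 0.5 and 0.25 times MIC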
Procedure: (§3) This bacterial cytological profiling (BCP) study uses methods and materials described previously by Nonejuie, P., Burkart, M., Poglianoa, K., Pogiano, J. (2013). Bacterial cytological profiling rapidly identifies the cellular pathways targeted by antibacterial molecules. Proc. Natl. Acad. Sci. U.S.A. 110(40):16169-16174. doi: 10.1073/pnas.1311066110.
(§4) Wild type strains of E. coli ATCC 25922 or P. aeruginosa K2732 are grown in rich media (unbuffered 2× Lysogeny broth [LB]) at 30 C to an OD600˜0.4. These cultures are then split and each sample treated with the appropriate concentration of Nu-8 in unbuffered or buffered LB (final mixture OD600˜0.1). Cells exposed without Nu-8 are buffered to pH 4 with phosphoric acid.
(§5) The BCP is performed in LB media buffered to pH 4. The minimum inhibitory concentration (MIC) is measured for Nu-3, Nu-4, Nu-5, and Nu-8 against each bacterial strain. As one of ordinary skill in the art understands, minimum inhibitory concentrations are the lowest concentration of an antimicrobial that will inhibit the visible growth of a microorganism after overnight incubation. […] Cellular viability is assayed at three time points (5 minutes and 4 and 24 h following the onset of treatment).
(§6) For imaging E. coli, treated cells are stained with 1 μg/Ml FM4-64, 2 μg/mL DAPI, and 0.5 μM SYTOXGreen (Molecular Probes/Invitrogen). P. aeruginosa samples are stained 0.5 μM SYTOX Green, 28 μg/mL DAPI, and 4.5 μg/mL FM 4-64. Cells are transferred to an agarose pad (20% LB, 1% agarose) for imaging as described in Pogliano, J., Osborne, N., Sharp, M. D., Abanes-De Mello, A., Perez, A., Sun, Y.-L. and Pogliano, K. (1999), A vital stain for studying membrane dynamics in bacteria: a novel mechanism controlling septation during Bacillus subtilis sporulation. Molecular Microbiology, 31: 1149-1159. doi:10.1046/j.1365-2958.1999.01255.x.

[6] = tested on: P. aeruginosa K2732; test: Bacterial cytological profiling (Example 6), P. aeruginosa; conditions: BCP;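 also: tested at 1 0.5 and 0.25 times MIC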
Procedure: as §3, §4, §5, §6

[7] = tested on: wild type E. coli (ATCC 25922); test: Bacterial cytological profiling at pH 4, 5.5, 7 (Example 8), E. coli
Procedure: as §3, with “investigation” for “study”
(§7) For viable cell counts, cells are grown to OD600≈0.4 and diluted 1:1 into buffered or unbuffered media containing various compound concentrations. Samples are then collected and serially diluted (1:10) on a 96 well plate. Five microliters from each well are spotted on LB plates, incubated at 30° C., and viable cells are counted the next day.
(§8) Samples are collected at 10, 30, 120, and 240 min of exposure for viable cell count and imaging. For imaging, E. coli and S. aureus 200 μL of treated cells per time point are stained with 0.8 μg/mL FM4-64, 1.5 μg/mL DAPI, and 0.4 μM SYTOXGreen (Molecular Probes/Invitrogen). P. aeruginosa samples are stained 0.4 μM SYTOX Green, 28 μg/mL DAN, and 1 μg/mL FM 4-64. Cells are transferred to an agarose pad (20% LB, 1% agarose) for imaging.
(§9) For Nu-3 and Nu-8 stocks (at pH 4, 5.5 and 7), stock concentration is 500 mg/mL. For pH 4, the stocks are prepared by dissolving Nu-3 in 25 mM citrate buffer and Nu-8 in 350 mM citric acid. For pH 5.5, the stocks are prepared by dissolving Nu-3 in 25 mM citric-phosphate and Nu-8 in 25 mM critic. For pH 7, the stocks are prepared by dissolving Nu-3 and Nu-8 in 25 mM Sorensen phosphate buffer. 2×LB (lysogeny broth) solutions are prepared with 50 mM citrate buffer for pH 4, 50 mM citrate-phosphate buffer for pH 5.5, and 50 mM Sorensen phosphate buffer for pH 7.

[8] = tested on: E. coli (ATCC 25922); test: Time kill assay in saline at pH 3.5 (Example 27); conditions: for Log10 CFU/mL: pH 3.5
Procedure: Log10 5 CFU of E. coli (ATCC 25922) were suspended in saline. Additionally, a sample of the saline only was prepared as a vehicle control (V.C.). Solutions of Nu-3, Nu-8, and Nu-10 at varying concentrations were adjusted to pH 3.5 with citric acid and added to the E. coli suspensions. At each time point (0, 1, 2.5, 5, 10, and 20 minutes), the treated bacterial suspensions were plated and incubated for 24 hrs, and each plate was read to determine the CFU count.
Tables 12-14 provide the time kill assay data for Nu-3 (Table 12), Nu-8 (Table 13) and Nu-10 (Table 14) against E. coli.

[9] = tested on: methicillin susceptible S. aureus (ATCC 29213); test: Bacterial cytological profiling at pH 4, 5.5, 7 (Example 8), S. aureus
Procedure: as §3, with “investigation” for “study”
as §7, §8, §9

[10] = tested on: wild type P. aeruginosa (PAO1; K2732); test: Bacterial cytological profiling at pH 4, 5.5, 7 (Example 8), P. aeruginosa; conditions: pH 5.5 and 7; 112.5 mg/mL
Procedure: as §3, with “investigation” for “study”
as §7, §8, §9

SMILES: CCCCOP(=O)(O)OC[C@H]1O[C@@H](n2cc(C)c(=O)[nH]c2=O)C[C@@H]1OP(=O)(O)OCCCC [Nu-3, reference compound]
- MIC ([1]; single isolate): 25000 µg/mL (≈ 48.6 mM)
- MIC ([2]; single isolate): 25000 µg/mL (≈ 48.6 mM)
- MIC ([3]; single isolate): > 50000 µg/mL
- MIC ([4]; single isolate): 25000 µg/mL (≈ 48.6 mM)
- effect on cell envelope ([5]; BCP): affect the cell envelope
- DNA condensation ([5]; higher treatment concentrations, buffered pH 4): causes DNA condensation
- cell wall deformations ([5]; unbuffered LB): cause cell wall deformations
- effect on cell envelope [6]: affect the cell envelope
- cell viability (cell growth delay) ([7]; pH 4, 112.5 mg/mL, up to 240 min): 10^7 CFR/mL
- effect on cell permeability, viability and growth ([7]; pH 5.5 and 7): ineffective
- Log10 CFU/mL ([8]; 2.5% solution, 0 min): 5.20 Log10 CFU/mL
- Log10 CFU/mL ([8]; 2.5% solution, 1 min): 3.38 Log10 CFU/mL
- Log10 CFU/mL ([8]; 2.5% solution, 2.5 min): 2.55 Log10 CFU/mL
- Log10 CFU/mL ([8]; 2.5% solution, 5 min): 1.99 Log10 CFU/mL
- Log10 CFU/mL ([8]; 2.5% solution, 10 min): 0.00 Log10 CFU/mL
- Log10 CFU/mL ([8]; 2.5% solution, 20 min): 0.00 Log10 CFU/mL
- Log10 CFU/mL ([8]; 5% solution, 0 min): 5.20 Log10 CFU/mL
- Log10 CFU/mL ([8]; 5% solution, 1 min): 3.00 Log10 CFU/mL
- Log10 CFU/mL ([8]; 5% solution, 2.5 min): 2.10 Log10 CFU/mL
- Log10 CFU/mL ([8]; 5% solution, 5 min): 0.00 Log10 CFU/mL
- Log10 CFU/mL ([8]; 5% solution, 10 min): 0.00 Log10 CFU/mL
- Log10 CFU/mL ([8]; 5% solution, 20 min): 0.00 Log10 CFU/mL
- Log10 CFU/mL ([8]; 10% solution, 0 min): 5.20 Log10 CFU/mL
- Log10 CFU/mL ([8]; 10% solution, 1 min): 2.85 Log10 CFU/mL
- Log10 CFU/mL ([8]; 10% solution, 2.5 min): 0.00 Log10 CFU/mL
- Log10 CFU/mL ([8]; 10% solution, 5 min): 0.00 Log10 CFU/mL
- Log10 CFU/mL ([8]; 10% solution, 10 min): 0.00 Log10 CFU/mL
- Log10 CFU/mL ([8]; 10% solution, 20 min): 0.00 Log10 CFU/mL
- time to complete kill of the bacteria ([8]; concentration of 10%): ≤ 2.5 min
- cell growth ([9]; pH 4, 125 mg/mL): slight reduction in cell growth
- cell permeability ([9]; pH 4, 125 mg/mL): < 10%
- cell permeability ([9]; pH 4, 250 mg/mL): < 10%
- cell growth ([9]; pH 5.5 and 7, 125 mg/mL and 250 mg/mL, up to 24 h): slightly reduce cell growth
- cell growth [10]: no effect on cell growth
- increase/change in cell permeability [10]: < 6%

SMILES: Nc1ncnc2c1ncn2[C@H]1C[C@H](OP(=O)(O)OC2CCCCC2)[C@@H](COP(=O)(O)OC2CCCCC2)O1 [LAI-105, ((2R,3S,5R)-5-(6-amino-9H-purin-9-yl)-3-(((cyclohexyloxy)(hydroxy)phosphoryl)oxy)tetrahydrofuran-2-yl)methyl cyclohexyl hydrogen phosphate]
- MIC ([1]; single isolate): 5000 µg/mL
- MIC ([2]; single isolate): > 5000 µg/mL
- MIC ([3]; single isolate): > 5000 µg/mL
- MIC ([4]; single isolate): > 5000 µg/mL

SMILES: Nc1ccn([C@H]2C[C@H](OP(=O)(O)OCc3ccccc3)[C@@H](COP(=O)(O)OCc3ccccc3)O2)c(=O)n1 [LAI-102, ((2R,3S,5R)-5-(4-amino-2-oxopyrimidin-1(2H)-yl)-3-(((benzyloxy)(hydroxy)-phosphoryl)oxy)tetrahydrofuran-2-yl)methyl benzyl hydrogen phosphate]
- MIC [1]: 25000 µg/mL
- MIC [2]: 50000 µg/mL
- MIC [3]: 25000 µg/mL
- MIC [4]: 5000 µg/mL

SMILES: CCCCOP(=O)(O)OC[C@H]1O[C@@H](n2cnc3c(N)ncnc32)[C@H](OC)[C@@H]1OP(=O)(O)OCCCC [LAI-106, ((2R,3R,4R,5R)-5-(6-amino-9H-purin-9-yl)-3-((butoxy(hydroxy)phosphoryl)oxy)-4-methoxytetrahydrofuran-2-yl)methyl butyl hydrogen phosphate]
- MIC ([1]; single isolate): 5000 µg/mL
- MIC ([2]; single isolate): 25000 µg/mL
- MIC ([3]; single isolate): 5000 µg/mL
- MIC ([4]; single isolate): 1000 µg/mL

SMILES: CCCCOP(=O)(O)OC[C@H]1O[C@@H](n2ccc(N)nc2=O)[C@H](OC)[C@@H]1OP(=O)(O)OCCCC [Nu-10, ((2R,3R,4R,5R)-5-(4-amino-2-oxopyrimidin-1(2H)-yl)-3-((butoxy(hydroxy)phosphoryl)oxy)-4-methoxytetrahydrofuran-2-yl)methyl butyl hydrogen phosphate]
- MIC ([1]; single isolate): 5000 µg/mL
- MIC ([2]; single isolate): 5000 µg/mL
- MIC ([3]; single isolate): 5000 µg/mL
- MIC ([4]; single isolate): 1000 µg/mL
- Log10 CFU/mL ([8]; 0.1% solution, 0 min): 5.20 Log10 CFU/mL
- Log10 CFU/mL ([8]; 0.1% solution, 1 min): 3.78 Log10 CFU/mL
- Log10 CFU/mL ([8]; 0.1% solution, 2.5 min): 3.38 Log10 CFU/mL
- Log10 CFU/mL ([8]; 0.1% solution, 5 min): 2.57 Log10 CFU/mL
- Log10 CFU/mL ([8]; 0.1% solution, 10 min): 0.00 Log10 CFU/mL
- Log10 CFU/mL ([8]; 0.1% solution, 20 min): 0.00 Log10 CFU/mL
- Log10 CFU/mL ([8]; 0.5% solution, 0 min): 5.20 Log10 CFU/mL
- Log10 CFU/mL ([8]; 0.5% solution, 1 min): 2.51 Log10 CFU/mL
- Log10 CFU/mL ([8]; 0.5% solution, 2.5 min): 0.00 Log10 CFU/mL
- Log10 CFU/mL ([8]; 0.5% solution, 5 min): 0.00 Log10 CFU/mL
- Log10 CFU/mL ([8]; 0.5% solution, 10 min): 0.00 Log10 CFU/mL
- Log10 CFU/mL ([8]; 0.5% solution, 20 min): 0.00 Log10 CFU/mL
- Log10 CFU/mL ([8]; 2.5% solution, 0 min): 5.20 Log10 CFU/mL
- Log10 CFU/mL ([8]; 2.5% solution, 1 min): 0.00 Log10 CFU/mL
- Log10 CFU/mL ([8]; 2.5% solution, 2.5 min): 0.00 Log10 CFU/mL
- Log10 CFU/mL ([8]; 2.5% solution, 5 min): 0.00 Log10 CFU/mL
- Log10 CFU/mL ([8]; 2.5% solution, 10 min): 0.00 Log10 CFU/mL
- Log10 CFU/mL ([8]; 2.5% solution, 20 min): 0.00 Log10 CFU/mL
- time to complete kill of the bacteria ([8]; concentration of 2.5%): ≤ 1 min

SMILES: CC(C)COP(=O)(O)OC[C@H]1O[C@@H](n2ccc(N)nc2=O)C[C@@H]1OP(=O)(O)OCC(C)C [LAI-101, ((2R,3S,5R)-5-(4-amino-2-oxopyrimidin-1(2H)-yl)-3-((hydroxy(isobutoxy)phosphoryl)-oxy)tetrahydrofuran-2-yl)methyl isobutyl hydrogen phosphate]
- MIC [1]: 5000 µg/mL
- MIC [2]: 50000 µg/mL
- MIC [3]: 5000 µg/mL
- MIC [4]: 5000 µg/mL
